Data on 24 molecules can be found in patent publication US9676757B2, “Heterocyclic compounds as NaV channel inhibitors and uses thereof” (Merck Patent GmbH, priority 2014, dated 2017).

The assay concerns the target Nav1.6 (Homo sapiens, UniProt Q9UQD0). Description: Nav two-pulse protocol, IonWorks Quattro electrophysiology. Particulars: -120 mV to 0 mV, compound incubated 300 s. In kind it is cell-based. The procedure:
Compound Plate Preparation
Supplied compounds were sent as Assay Ready Plates, with 2 μL per well of compound in DMSO at 300× the final assay concentrations as described above and in the project proposal. All assay plates are stored at in a −80° C. freezer.
On the day of the assay, 198 μL of external solution was added to the appropriate assay plate and mixed thoroughly. This provided a 1:100 dilution. A further 1:3 dilution occurred upon addition to the cells in the IonWorks, giving a 1:300 dilution in total.
On each assay plate, at least 8 wells were reserved for vehicle control (0.3% DMSO) and at least 8 wells for each positive control specific to the cell line tested. The positive controls were tested in an 8-point dose response with 3-fold dilutions to determine an IC50 value for each run. The positive control compounds are outlined below.
Ion Channel Positive Control & Concentrations
Nav1.6/1.2 Lidocaine: 8, 3-fold dilutions starting at 100 μM
Electrophysiological Recording Solutions
The solutions for recording currents were are follows:
Amphotericin B was used to obtain electrical access to the cell interior at a final concentration of 200 μg/ml in internal recording solution.
Experimental Protocols & Data Analysis
Nav currents were evoked by stepping from a holding potential of −120 mV to 0 mV for 2.5 s (pulse 1), followed by a 5 ms inter-pulse interval, and stepping from a holding potential of −120 mV to 0 mV for 20 ms (pulse 2). The voltage protocol was applied (Pre), compounds added, incubated for 300 seconds, and the voltage protocol was applied a final time (Post) on the IonWorks Quattro.
The parameters measured were the maximum inward current evoked on stepping to 0 mV from the 1st and 2nd pulse. All data were filtered for seal quality, seal drop, and current amplitude. The peak current amplitude (Peak) was calculated before (Pre) and after (Post) compound addition to the amount of block was assessed by dividing the Post-compound current amplitude by the Pre-compound current amplitude. These procedures were implemented for the 1st and 2nd pulse.
In general terms: In patch-clamp work, channel activity is measured electrically.

Where a name gives a salt, the structure may show the parent alone. Read-outs that look alike come from different tables or passages of the source.

Chain of Nav1.6 (Q9UQD0 whole entry): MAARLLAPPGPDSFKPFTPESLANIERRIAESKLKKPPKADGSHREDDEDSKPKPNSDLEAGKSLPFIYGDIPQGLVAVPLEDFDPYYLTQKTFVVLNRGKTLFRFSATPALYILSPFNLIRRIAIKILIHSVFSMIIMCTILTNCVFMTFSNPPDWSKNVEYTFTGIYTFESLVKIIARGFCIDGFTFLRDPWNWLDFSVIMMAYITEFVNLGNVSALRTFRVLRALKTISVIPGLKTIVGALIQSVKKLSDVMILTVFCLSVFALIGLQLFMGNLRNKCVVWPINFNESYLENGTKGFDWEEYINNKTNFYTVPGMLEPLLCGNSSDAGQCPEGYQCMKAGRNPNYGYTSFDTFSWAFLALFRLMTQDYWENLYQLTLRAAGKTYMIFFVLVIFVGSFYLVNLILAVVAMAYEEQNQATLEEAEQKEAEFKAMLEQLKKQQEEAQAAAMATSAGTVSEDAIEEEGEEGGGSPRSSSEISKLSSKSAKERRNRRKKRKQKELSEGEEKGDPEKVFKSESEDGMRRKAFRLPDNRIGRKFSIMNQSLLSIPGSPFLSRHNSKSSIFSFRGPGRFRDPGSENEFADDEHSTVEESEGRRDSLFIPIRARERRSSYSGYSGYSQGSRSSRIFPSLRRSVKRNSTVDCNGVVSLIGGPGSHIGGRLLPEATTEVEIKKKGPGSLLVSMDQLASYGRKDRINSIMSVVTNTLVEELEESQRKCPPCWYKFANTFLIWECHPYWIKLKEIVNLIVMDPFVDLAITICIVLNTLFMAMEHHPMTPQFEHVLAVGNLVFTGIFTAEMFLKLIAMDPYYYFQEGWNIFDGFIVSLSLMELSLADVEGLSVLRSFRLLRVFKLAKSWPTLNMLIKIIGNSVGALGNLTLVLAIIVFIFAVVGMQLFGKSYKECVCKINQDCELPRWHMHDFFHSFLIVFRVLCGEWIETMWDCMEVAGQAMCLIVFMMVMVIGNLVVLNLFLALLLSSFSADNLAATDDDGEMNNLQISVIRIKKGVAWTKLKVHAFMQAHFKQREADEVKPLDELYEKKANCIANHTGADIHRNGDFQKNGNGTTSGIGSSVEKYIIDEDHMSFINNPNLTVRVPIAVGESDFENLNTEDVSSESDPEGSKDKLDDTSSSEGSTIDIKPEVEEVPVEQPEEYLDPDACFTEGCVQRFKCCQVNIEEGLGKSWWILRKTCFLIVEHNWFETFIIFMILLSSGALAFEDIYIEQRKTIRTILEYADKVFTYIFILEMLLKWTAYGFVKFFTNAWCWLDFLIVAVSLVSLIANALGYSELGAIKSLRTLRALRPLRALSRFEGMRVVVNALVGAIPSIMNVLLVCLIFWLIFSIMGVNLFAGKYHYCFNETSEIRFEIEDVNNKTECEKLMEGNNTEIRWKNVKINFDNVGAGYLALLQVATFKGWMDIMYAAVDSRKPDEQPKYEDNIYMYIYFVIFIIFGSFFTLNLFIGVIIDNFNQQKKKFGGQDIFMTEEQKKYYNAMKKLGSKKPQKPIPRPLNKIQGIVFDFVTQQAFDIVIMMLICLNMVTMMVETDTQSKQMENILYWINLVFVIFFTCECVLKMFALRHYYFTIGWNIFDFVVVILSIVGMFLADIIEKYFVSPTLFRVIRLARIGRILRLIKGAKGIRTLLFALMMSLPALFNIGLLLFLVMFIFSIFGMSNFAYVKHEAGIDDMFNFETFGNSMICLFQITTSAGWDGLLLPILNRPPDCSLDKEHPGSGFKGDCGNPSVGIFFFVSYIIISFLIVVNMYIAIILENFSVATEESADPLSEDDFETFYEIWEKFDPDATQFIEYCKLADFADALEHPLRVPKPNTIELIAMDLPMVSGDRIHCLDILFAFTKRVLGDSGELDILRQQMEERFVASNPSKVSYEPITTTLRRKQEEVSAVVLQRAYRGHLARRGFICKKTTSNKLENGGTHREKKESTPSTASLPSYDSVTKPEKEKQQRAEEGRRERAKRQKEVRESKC

On to `Cc1cc(C)cc(Oc2cccc(CN3CCC(C(=O)NCc4ccccn4)C3)c2)c1` (stereo not drawn) [Compound 9, l-[3-(3,5-Dimethyl-phenoxy)-benzyl]-pyrrolidine-3-carboxylic acid (pyridin-2-ylmethyl)-amide], for which the IC50 is above 20 µM (read-out: Nav1.6 Tonic) and below 1 µM (read-out: Nav1.6 inac).

On to `Cc1cnc(CNC(=O)C2CCN(Cc3cccc(OCC(F)(F)F)c3)C2)cn1` (centres unmarked) [Compound 89, 1-[3-(2,2,2-Trifluoro-ethoxy)-benzyl]-pyrrolidine-3-carboxylic acid (5-methyl-pyrazin-2-ylmethyl)-amide], for which the IC50 by setting is: (read-out: Nav1.6 Tonic) above 20 µM; (read-out: Nav1.6 inac) 1 to 5 µM.

For `CC(C)CSc1cccc(CN2CCC(C(=O)OCc3ccccn3)C2)c1` (centres unmarked) [Compound 46, 1-(3-Isobutylsulfanyl-benzyl)-pyrrolidine-3-carboxylic acid pyridin-2-ylmethyl ester], the IC50 was above 20 µM (read-out: Nav1.6 Tonic) and 1 to 5 µM (read-out: Nav1.6 inac).

In the case of `CC(C)COc1cccc(CN2CCC(c3noc(Cc4ccccn4)n3)C2)c1` (centres unmarked) [Compound 57, 2-{3-[1-(3-Isobutoxy-benzyl)-pyrrolidin-3-yl]-[1,2,4]oxadiazol-5-ylmethyl}-pyridine], the IC50 (read-out: Nav1.6 Tonic) was above 20 µM and the IC50 (read-out: Nav1.6 inac) lay in the range of 1 to 5 µM.

Regarding `COc1cccc(-c2nc(C3CCN(Cc4cccc(OCC(C)C)c4)C3)no2)n1` (centres unmarked) [Compound 56, 2-{3-[1-(3-Isobutoxy-benzyl)-pyrrolidin-3-yl]-[1,2,4]oxadiazol-5-yl}-6-methoxy-pyridine], the IC50 by setting is: (read-out: Nav1.6 Tonic) above 20 µM; (read-out: Nav1.6 inac) 1 to 5 µM.

With `O=C(NCc1ccccc1C(F)(F)F)C1CCN(Cc2cccc(Oc3ccccc3)c2)C1` (centres unmarked) [Compound 72, 1-(3-Phenoxy-benzyl)-pyrrolidine-3-carboxylic acid 2-trifluoromethyl-benzylamide], the IC50 runs as follows: (read-out: Nav1.6 Tonic) 10 to 20 µM; (read-out: Nav1.6 inac) 1 to 5 µM.

For the molecule `O=C(NCc1ccccn1)C1CCN(Cc2cccc(-c3ccccc3)c2)C1` (centres unmarked) [Compound 29, 1-Biphenyl-3-ylmethyl-pyrrolidine-3-carboxylic acid (pyridin-2-ylmethyl)-amide], the IC50 runs as follows: (read-out: Nav1.6 Tonic) 10 to 20 µM; (read-out: Nav1.6 inac) 1 to 5 µM.

For `O=C(NCCc1c[nH]cn1)C1CCN(Cc2cccc(Oc3ccccc3)c2)C1` (centres unmarked) [Compound 86, 1-(3-Phenoxy-benzyl)-pyrrolidine-3-carboxylic acid [2-(1H-imidazol-4-yl)-ethyl]-amide], the IC50 (read-out: Nav1.6 inac) was above 5 µM.

Consider `Cc1cccc(Oc2cccc(CN3CCC(C(=O)NCc4ccccn4)C3)c2)c1` (centres unmarked) [Compound 43, 1-(3-m-Tolyloxy-benzyl)-pyrrolidine-3-carboxylic acid (pyridin-2-ylmethyl)-amide], for which the IC50 was above 20 µM (read-out: Nav1.6 Tonic) and above 5 µM (read-out: Nav1.6 inac).

Turning to `CC(C)(C)c1ccc(CNC(=O)C2CCN(Cc3cccc(Oc4ccccc4)c3)C2)cc1` (centres unmarked) [Compound 81, 1-(3-Phenoxy-benzyl)-pyrrolidine-3-carboxylic acid 4-tert-butyl-benzylamide], the IC50 was 10 to 20 µM (read-out: Nav1.6 Tonic) and below 1 µM (read-out: Nav1.6 inac).

For the molecule `O=C(NCc1ccccn1)C1CCN(Cc2cccc(Oc3ccc(F)cc3)c2)C1` (centres unmarked) [Compound 13, 1-[3-(4-Fluoro-phenoxy)-benzyl]-pyrrolidine-3-carboxylic acid (pyridin-2-ylmethyl)-amide], the IC50 runs as follows: (read-out: Nav1.6 Tonic) above 20 µM; (read-out: Nav1.6 inac) below 1 µM.

`O=C(NCc1ccccn1)C1CCN(Cc2cccc(Oc3cccnc3)c2)C1` (centres unmarked) [Compound 12, 1-[3-(Pyridin-3-yloxy)-benzyl]-pyrrolidine-3-carboxylic acid (pyridin-2-ylmethyl)-amide]: the IC50 was above 20 µM (read-out: Nav1.6 Tonic) and 1 to 5 µM (read-out: Nav1.6 inac).

`CC1(C(=O)N2Cc3ccncc3C2)CCN(Cc2cccc(Oc3ccccc3)c2)C1` (centres unmarked) [Compound 108, (1,3-Dihydro-pyrrolo[3,4-c]pyridin-2-yl)-[3-methyl-1-(3-phenoxy-benzyl)-pyrrolidin-3-yl]-methanone]: the IC50 reads like this: (read-out: Nav1.6 Tonic) above 20 µM; (read-out: Nav1.6 inac) 1 to 5 µM.

For the molecule `O=C(NCc1ccc(OC(F)F)cc1)C1CCN(Cc2cccc(Oc3ccccc3)c2)C1` (centres unmarked) [Compound 96, 1-(3-Phenoxy-benzyl)-pyrrolidine-3-carboxylic acid 4-difluoromethoxy-benzylamide], the IC50 reads like this: (read-out: Nav1.6 Tonic) above 20 µM; (read-out: Nav1.6 inac) above 5 µM.

Regarding `CC1(C)Oc2ccc(CN3CCC(C(=O)NCc4ccccn4)C3)cc2O1` (centres unmarked) [Compound 33, 1-(2,2-Dimethyl-benzo[1,3]dioxol-5-ylmethyl)-pyrrolidine-3-carboxylic acid (pyridin-2-ylmethyl)-amide], the IC50 is above 20 µM (read-out: Nav1.6 Tonic) and 1 to 5 µM (read-out: Nav1.6 inac).

For the molecule `Cc1cncc(Oc2cccc(CN3CCC(C(=O)NCc4ccccn4)C3)c2)n1` (centres unmarked) [Compound 18, 1-[3-(6-Methyl-pyrazin-2-yloxy)-benzyl]-pyrrolidine-3-carboxylic acid (pyridin-2-ylmethyl)-amide], the IC50 was above 20 µM (read-out: Nav1.6 Tonic) and above 5 µM (read-out: Nav1.6 inac).

For the molecule `Cc1ccc(-c2nc(C3CCN(Cc4cccc(OCC(C)C)c4)C3)no2)nc1` (centres unmarked) [Compound 55, 2-{3-[1-(3-Isobutoxy-benzyl)-pyrrolidin-3-yl]-[1,2,4]oxadiazol-5-yl}-5-methyl-pyridine], the IC50 (read-out: Nav1.6 Tonic) was above 20 µM and the IC50 (read-out: Nav1.6 inac) fell in the range of 1 to 5 µM.

As for `Cn1ccnc1CNC(=O)C1(C)CCN(Cc2cccc(Oc3ccccc3)c2)C1` (centres unmarked) [Compound 101, 3-Methyl-1-(3-phenoxy-benzyl)-pyrrolidine-3-carboxylic acid (1-methyl-1H-imidazol-2-ylmethyl)-amide], the IC50 is above 20 µM (read-out: Nav1.6 Tonic) and 1 to 5 µM (read-out: Nav1.6 inac).

In the case of `O=C(NCc1ccccn1)C1CCN(Cc2cccc(Oc3ncccn3)c2)C1` (centres unmarked) [Compound 44, 1-[3-(Pyrimidin-2-yloxy)-benzyl]-pyrrolidine-3-carboxylic acid (pyridin-2-ylmethyl)-amide], the IC50 is above 20 µM (read-out: Nav1.6 Tonic) and above 5 µM (read-out: Nav1.6 inac).

As for `O=C(NCc1ccccn1)C1CCN(Cc2cccc(OC(F)(F)F)c2)C1` (centres unmarked) [Compound 109, 1-(3-Trifluoromethoxy-benzyl)-pyrrolidine-3-carboxylic acid (pyridin-2-ylmethyl)-amide hydrochloride], the IC50 is 10 to 20 µM (read-out: Nav1.6 Tonic) and below 1 µM (read-out: Nav1.6 inac).

With `O=C(NCc1cccc(Cl)c1)C1CCN(Cc2cccc(Oc3ccccc3)c2)C1` (centres unmarked) [Compound 69, 1-(3-Phenoxy-benzyl)-pyrrolidine-3-carboxylic acid 3-chloro-benzylamide], the IC50 (read-out: Nav1.6 Tonic) was above 20 µM and the IC50 (read-out: Nav1.6 inac) is below 1 µM.

In the case of `O=C(NCc1ccccn1)C1(O)CCN(Cc2cccc(Oc3ccccc3)c2)C1` (centres unmarked) [Compound 93, 3-hydroxy-1-(phenyloxy-benzyl)-pyrrolidine-3-carboxylic acid (pyridin-2-ylmethyl)-amide], the IC50 is above 20 µM (read-out: Nav1.6 Tonic) and 1 to 5 µM (read-out: Nav1.6 inac).

Take `O=C(NCc1ccccn1)C1(F)CCN(Cc2cccc(Oc3ccc(F)c(F)c3)c2)C1` (centres unmarked) [Compound 24, 1-[3-(3,4-Difluoro-phenoxy)-benzyl]-3-fluoro-pyrrolidine-3-carboxylic acid (pyridin-2-ylmethyl)-amide]: the IC50 runs as follows: (read-out: Nav1.6 Tonic) above 20 µM; (read-out: Nav1.6 inac) 1 to 5 µM.

On to `Cc1ccc(F)cc1CNC(=O)C1CCN(Cc2cccc(Oc3ccccc3)c2)C1` (centres unmarked) [Compound 84, 1-(3-Phenoxy-benzyl)-pyrrolidine-3-carboxylic acid 5-fluoro-2-methyl-benzylamide], for which the IC50 reads like this: (read-out: Nav1.6 Tonic) 10 to 20 µM; (read-out: Nav1.6 inac) below 1 µM.
